Source: US20220211606A1, “LIQUID COMPOSITION FOR INFLUENCING THE MICROBIOTA ON A SUBJECT'S SKIN COMPRISING CHITOSAN” (Medoderm GmbH, priority 2019, published 2022)

Experiments:
Staphylococcus aureus [1] = assay: Repopulation of disinfected human skin (Rodac contact plates), pathogen; type: in vivo; conditions: upper arm disinfected with 70% isopropanol; 0, 1 h, 2 h, 4 h, 6 h; 100 μl on approx. 50 cm^2
[2] = system: endogenous skin microflora; assay: Repopulation of disinfected human skin after contact with worn clothing (Rodac contact plates); type: in vivo; conditions: after 6 h test period, 10 minutes contact with worn clothing, sampled 1 h after removal
Procedure: The test germ corresponded to endogenous skin microflora. […] The sample size was approx. 50 cm^2 skin surface area and the sample volume 100 μl. Contact time was 0, 1 h, 2 h, 4 h, 6 h, after contact and 1 h after contact.
Rodac contact plates were used for sampling of microorganisms from human skin (upper arm) before and after treatment. The upper arm region was chosen to prevent contamination by touching and clothing. Disinfection was performed with 70% isopropanol.
After the 6 h test period, the test areas were exposed to worn clothing for 10 minutes, resulting in a typical transfer of microorganism from clothing to the skin surface (time point directly after contact). 1 h after removal of clothing the bacteria were collected from the test areas aby Rodac contact plates.

Staphylococcus aureus [3] = assay: Microbiome agar matrix test, surface pathogen; type: cell-based; conditions: 20 μl on agar surface; 37° C. over night; inoculum 2.0×10^6 CFU
Procedure: For the present experiment, the above microbiome organisms are seeded out on an agar plate. Afterwards the organisms are embedded in a special microbiome agar matrix to simulate the epidermis layers. […] In the next step the test formulation is applied onto small areas on the surface and the test setup is incubated at 37° C. over night. After incubation, growth of the matrix-embedded microbiome organisms and superficial Staphylococcus aureus is used for the assessment of an influence of the test formulation on the microbiome organisms. […] If the applied product also causes a growth inhibition of the microbiome organisms, the product is assessed to have negative influence on the human microbiome. A disinfectant agent (isopropanol:water 70:30) is used as […] to inhibit growth of the pathogen as well as the microbiome organisms. Buffer solution (used for dilution, if applied; 0.9% (w/w) NaCl in water) is used as a negative control. The sample volume of test formulation is 20 μl. The inoculum microbiome contains 2.0×10^6 CFU (colony forming units). The inoculum pathogen was set at 2.0×10^6 CFU.

Structure (SMILES): CC(C)O [Disinfection, isopropanol]
- Staphylococcus aureus on the test area (Staphylococcus aureus [1]): only found on the “Disinfection” test area
- microorganisms collected 1 h after exposure to worn clothing [2]: also showed pathogenic organisms (gram-negative bacteria=big colonies)
- growth of superficial Staphylococcus aureus (Staphylococcus aureus [3]): neither growth on the surface
